Among the test systems are A498; CCRF-CEM; EKVX; HCT-15; HL-60; HOP-62; LOX IMVI; MCF7; MDA-MB-231; MDA-N; MOLT-4; NCI-H226; NCI-H460; NCI/ADR-RES; OVCAR-4; OVCAR-8; RXF 393; SF-295; SW-620; SF-539.
Assay in all cases: growth of human tumour cells (NCI), 48 h

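Results reflect a 48-hour exposure of cells in 96-well plates to compound at five concentrations. The concentration for 50% growth inhibition is given as GI50.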 The source made the active and inactive calls. Rule as the data show it: active = GI50 up to about 1.1 µM and inactive = higher.

Take `COc1ccc(-c2csc(Cc3nc4ccccc4c(=O)n3-c3ccc(Cl)cc3)n2)cc1`: the GI50 in the experiment on A498 is 70.8 µM (inactive); with CCRF-CEM, 28.9 µM (inactive); with EKVX, 18.2 µM (inactive); in the experiment on HCT-15 it was 29.1 µM; in the experiment with HL-60, 32.6 µM (inactive); with HOP-62 it was > 100 µM (inactive). For the same molecule, the GI50 with LOX IMVI is 39.4 µM (inactive); in the experiment with MCF7 it was 32.8 µM (inactive); in the experiment with MDA-MB-231, 60.7 µM (inactive); with MDA-N, 22.7 µM (inactive); in the experiment with MOLT-4 it was 20 µM (inactive); with NCI-H226, 74.6 µM (inactive). In addition, the GI50 in the experiment with NCI-H460 is 33.5 µM (inactive); with NCI/ADR-RES, 56.1 µM (inactive); in the experiment on OVCAR-4 it was 52.6 µM (inactive); in the experiment with OVCAR-8, 57.7 µM (inactive); in the experiment on RXF 393, > 100 µM (inactive); with SF-295, 50.4 µM (inactive). Also, the GI50 in the experiment with SW-620 is 58.3 µM (inactive).
For the molecule `CCOC(=O)c1cn2c(n1)sc1c(Cl)c(Cl)ccc12`, the GI50 in the experiment with A498 was 20.6 µM (inactive); with CCRF-CEM, 4.97 µM (inactive); with EKVX, 31 µM (inactive); in the experiment on HCT-15, 5.07 µM; in the experiment on HOP-62, 15.5 µM (inactive); in the experiment on LOX IMVI, 13.2 µM (inactive). Besides, the GI50 in the experiment with MCF7 was 11.1 µM (inactive); in the experiment with MDA-MB-231, 26.7 µM (inactive); with MDA-N, 1.56 µM (inactive); with MOLT-4, 8.71 µM (inactive); in the experiment on NCI-H226, 14.8 µM (inactive); in the experiment on NCI-H460, > 60.1 µM (inactive). The GI50 in the experiment on NCI/ADR-RES is 8.38 µM (inactive); with OVCAR-4, 46.6 µM (inactive); in the experiment with OVCAR-8 it was 15.9 µM (inactive); in the experiment on RXF 393, 23.8 µM (inactive); in the experiment with SF-295, 22.9 µM (inactive); in the experiment with SF-539, 6.76 µM (inactive). For the same molecule, the GI50 in the experiment on SW-620 is 5.13 µM (inactive).
In the case of `Nc1ccccc1/N=N/c1c(S(=O)(=O)O)cc2cc(S(=O)(=O)O)cc(O)c2c1O`, the GI50 in the experiment with A498 was > 100 µM (inactive); with CCRF-CEM it was > 100 µM (inactive); in the experiment on EKVX, > 100 µM (inactive); in the experiment on HCT-15, greater than 100 µM; in the experiment on HOP-62, > 100 µM (inactive); in the experiment on LOX IMVI it was > 100 µM (inactive). In addition, the GI50 was > 100 µM (inactive) with MCF7; > 100 µM (inactive) in the experiment on MDA-MB-231; 32.4 µM (inactive) in the experiment with MDA-N; > 100 µM (inactive) in the experiment with MOLT-4; > 100 µM (inactive) in the experiment on NCI-H226; > 100 µM (inactive) with NCI/ADR-RES. The GI50 in the experiment on OVCAR-4, with OVCAR-8, in the experiment with RXF 393, with SF-295 and in the experiment with SW-620 was > 100 µM (inactive) throughout.
Regarding `C=CCOC(=O)N1[C@H]2C#C/C=C\C#C[C@]3(O)C(=O)C[C@H](C)[C@]24O[C@]43C2=CC(=O)C=CC21OC` (stereo partly specified), the GI50 with A498 was 2.35 µM (inactive); with CCRF-CEM, 16.8 µM (inactive); in the experiment on EKVX it was 44 µM (inactive); with HCT-15, 31.4 µM; with HL-60, 30.8 µM (inactive); in the experiment with HOP-62, 40.2 µM (inactive). Moreover, the GI50 in the experiment with MCF7 is 16.9 µM (inactive); with MDA-MB-231, 28.3 µM (inactive); with MDA-N it was 28.6 µM (inactive); in the experiment with MOLT-4, 3.72 µM (inactive); in the experiment on NCI-H226, 30.5 µM (inactive); with NCI-H460 it was 13.9 µM (inactive). Moreover, the GI50 with NCI/ADR-RES is 43.8 µM (inactive); in the experiment with OVCAR-4 it was 26.4 µM (inactive); in the experiment on OVCAR-8, 22.5 µM (inactive); in the experiment with RXF 393, 20.9 µM (inactive); with SF-295 it was 44 µM (inactive); in the experiment on SF-539, 20.6 µM (inactive). Moreover, the GI50 in the experiment with SW-620 is 32.8 µM (inactive).
In the case of `COc1ccc(Nc2nc3ccc(C(F)(F)F)cc3nc2C(=O)O)cc1`, the GI50 with A498 was 16.7 µM (inactive); with CCRF-CEM, 27 µM (inactive); with EKVX it was 31.5 µM (inactive); in the experiment on HCT-15, 28.6 µM; in the experiment on HOP-62, 35.5 µM (inactive); with LOX IMVI, 32.5 µM (inactive). Moreover, the GI50 with MCF7 is 36.6 µM (inactive); in the experiment on MDA-MB-231, 66.4 µM (inactive); in the experiment on MDA-N it was 42.2 µM (inactive); with MOLT-4 it was 29.5 µM (inactive); with NCI-H226 it was 20.6 µM (inactive); in the experiment with NCI-H460, 26 µM (inactive). For the same molecule, the GI50 in the experiment on NCI/ADR-RES was 29.9 µM (inactive); with OVCAR-4, 47.8 µM (inactive); in the experiment on OVCAR-8, 30.8 µM (inactive); with RXF 393, 22.9 µM (inactive); with SF-295, 23.6 µM (inactive); with SF-539, 23.9 µM (inactive). In addition, in the experiment on SW-620, the GI50 was 38.4 µM (inactive).
As to `CN(C)c1ccc(/C=c2/c3ccccc3n3c2cc(C24CC5CC(CC(C5)C2)C4)[n+]3C)cc1`, the GI50 with A498 is 0.314 µM (active); in the experiment on CCRF-CEM it was 0.117 µM (active); in the experiment with EKVX, 0.344 µM (active); in the experiment on HCT-15 it was 0.446 µM; in the experiment on HL-60, 0.231 µM (active); in the experiment with HOP-62 it was 0.411 µM (active). In addition, the GI50 is 0.326 µM (active) in the experiment with LOX IMVI; 0.0615 µM (active) with MCF7; 0.281 µM (active) with MDA-MB-231; 0.33 µM (active) in the experiment with MDA-N; 0.998 µM (active) in the experiment with MOLT-4; 0.396 µM (active) with NCI-H226. For the same molecule, the GI50 with NCI-H460 is 0.313 µM (active); in the experiment with NCI/ADR-RES, 1.52 µM (inactive); with OVCAR-4, 0.337 µM (active); with OVCAR-8, 0.129 µM (active); in the experiment with SF-295, 0.32 µM (active); in the experiment on SF-539, 0.123 µM (active). Moreover, the GI50 with SW-620 is 0.148 µM (active).
As to `COC(CC1(CCNc2ccccc2)C(=O)N(COCC[Si](C)(C)C)c2ccccc21)OC` (stereo unspecified), the GI50 in the experiment on A498 is 21.1 µM (inactive); with CCRF-CEM it was 15.8 µM (inactive); in the experiment on EKVX, 17.8 µM (inactive); with HCT-15, 16 µM; in the experiment on HL-60, 4.35 µM (inactive); in the experiment on HOP-62 it was 13.7 µM (inactive). Further, the GI50 is 12.5 µM (inactive) in the experiment with LOX IMVI; 10.4 µM (inactive) with MCF7; 19.3 µM (inactive) in the experiment on MDA-MB-231; 24 µM (inactive) in the experiment on MDA-N; > 43.7 µM (inactive) with MOLT-4; 6 µM (inactive) in the experiment with NCI-H226. Besides, the GI50 is 15 µM (inactive) with NCI-H460; 17.1 µM (inactive) in the experiment with NCI/ADR-RES; 13.6 µM (inactive) in the experiment with OVCAR-4; 18.4 µM (inactive) with OVCAR-8; 12.5 µM (inactive) with RXF 393; 16.6 µM (inactive) in the experiment on SF-295. The GI50 in the experiment with SW-620 was 18.9 µM (inactive).
With `O=C1CCC(C(=O)O)C2=C1CCCC2` (stereo unspecified), the GI50 in the experiment with A498 was > 100 µM (inactive); in the experiment with CCRF-CEM, > 100 µM (inactive); in the experiment on EKVX, > 100 µM (inactive); in the experiment on HCT-15 it was greater than 100 µM; with HL-60 it was > 100 µM (inactive); with HOP-62, > 16.4 µM (inactive). Also, the GI50 with LOX IMVI was > 100 µM (inactive); in the experiment on MCF7, 51.6 µM (inactive); in the experiment on MDA-MB-231, > 100 µM (inactive); in the experiment on MDA-N it was > 100 µM (inactive); in the experiment with MOLT-4 it was > 100 µM (inactive); with NCI-H226, > 14.4 µM (inactive). The GI50 in the experiment on NCI/ADR-RES was > 100 µM (inactive); in the experiment on OVCAR-4, > 100 µM (inactive); in the experiment with OVCAR-8, > 100 µM (inactive); in the experiment on RXF 393, > 100 µM (inactive); with SF-295 it was > 36.1 µM (inactive); with SW-620, > 100 µM (inactive).
`CC1CC2OC(=N)C1(C#N)C2(C#N)C#N` (stereo unspecified): the GI50 with A498 is 20.3 µM (inactive); in the experiment with CCRF-CEM, 4.94 µM (inactive); in the experiment on EKVX it was 16.6 µM (inactive); in the experiment on HCT-15 it was 14 µM; in the experiment with HOP-62 it was 16.8 µM (inactive); in the experiment on LOX IMVI it was 14.7 µM (inactive). Moreover, the GI50 in the experiment with MCF7 is 28 µM (inactive); with MDA-MB-231, 17.2 µM (inactive); in the experiment with MDA-N, 16.3 µM (inactive); in the experiment on MOLT-4, 24.7 µM (inactive); in the experiment with NCI-H226 it was 38.4 µM (inactive); in the experiment with NCI/ADR-RES, 29.1 µM (inactive). Besides, the GI50 in the experiment on OVCAR-8 was 25.1 µM (inactive); in the experiment with RXF 393 it was 16.1 µM (inactive); in the experiment on SF-295 it was 79.1 µM (inactive); in the experiment on SF-539, 22.5 µM (inactive); in the experiment on SW-620 it was 18.2 µM (inactive).
For `O=C(COc1ccc(OCC(=O)N2C(=O)CC/C2=N\c2ccc(Cl)cc2)cc1)N1C(=O)CS/C1=N\c1ccc(Cl)cc1`, the GI50 in the experiment on A498 is > 100 µM (inactive); in the experiment on EKVX, 76.9 µM (inactive); in the experiment on HCT-15 it was greater than 100 µM; with HL-60 it was 37.2 µM (inactive); in the experiment on HOP-62, 73.1 µM (inactive); in the experiment with LOX IMVI it was 25.2 µM (inactive). The GI50 in the experiment with MCF7 is 35.3 µM (inactive); with MDA-MB-231, 26.9 µM (inactive); with MDA-N, > 100 µM (inactive); in the experiment on NCI-H226 it was > 100 µM (inactive); in the experiment with NCI-H460, 72.6 µM (inactive); with NCI/ADR-RES, > 100 µM (inactive). Besides, the GI50 in the experiment with OVCAR-4 was 75.3 µM (inactive); in the experiment with OVCAR-8, 47.5 µM (inactive); with RXF 393, > 100 µM (inactive); in the experiment on SF-295, 52.8 µM (inactive); in the experiment with SW-620, > 100 µM (inactive).
Consider `Cc1ccc(-c2cc(N)n(-c3nc4c([nH]3)c(=O)n(C)c(=O)n4C)n2)cc1`, for which the GI50 in the experiment on A498 is 4.86 µM (inactive); in the experiment on CCRF-CEM, 2.64 µM (inactive); in the experiment with EKVX it was 3.09 µM (inactive); in the experiment on HCT-15 it was 0.47 µM; with HL-60 it was 5.04 µM (inactive); with HOP-62, 3.28 µM (inactive). Besides, the GI50 in the experiment with MCF7 is 6.78 µM (inactive); in the experiment with MDA-MB-231, 8.97 µM (inactive); in the experiment on MDA-N, 5.98 µM (inactive); with MOLT-4, 2.06 µM (inactive); in the experiment with NCI-H226, 6.71 µM (inactive); with NCI-H460, 1.71 µM (inactive). Moreover, the GI50 in the experiment with NCI/ADR-RES is 1.55 µM (inactive); in the experiment on OVCAR-4 it was 4.01 µM (inactive); in the experiment on OVCAR-8 it was 3.37 µM (inactive); in the experiment with RXF 393 it was 17.6 µM (inactive); with SF-295 it was 2.69 µM (inactive); in the experiment with SF-539, 4.24 µM (inactive).

For the origin of these results see ChEMBL document CHEMBL1201862, “PubChem BioAssay data set” (2004).
